The values below come from patent publication US8628931B2, “mTOR pathway theranostic” (George Mason Intellectual Properties, Inc., priority 2005, dated 2014).

Holding throughout (format): in vivo, mouse
Assay [1] concerns mTOR downstream targets 4EBP1 and S6. In words: Western blotting for S6 and 4EBP1 phosphorylation, RD xenograft tumors or uninvolved muscle. How it is done: (§1) (FIG. 6A) Time dependent CCI-779 inhibition of phosphorylation of mTOR pathway downstream substrates within tumor tissue in a xenograft treatment model. […] (FIG. 6B) CCI-779 inhibited tumor growth in Rh30 and RD mouse xenograft models. 2×10^6 cells in 0.2 mL total volume per mouse, from either Rh30 alveolar or RD embryonal cell lines, were injected orthotopically into the left hind leg gastrocnemius muscle of a SCID beige murine model. After 1 week, mice were assigned to control (n=8) or CCI-779 treatment groups (n=8). Tumor volume, as measured with calipers, was less in the CCI-779 treatment group as compared to the vehicle alone for both the Rh30 and RD xenografts --▴-- RD control, -▪- Rh30 plus CCI-779, -- ♦-- Rh30 control --X- RD plus CCI-779, (RD p=0.00008; Rh30 p=0.0002, Student's t-test). (FIG. 6C) CCI-779 was administered at 20 mg/kg/IP every 3 days for 30 days. Protein extracts from Rh30 and RD mouse xenograft tumors or uninvolved muscle were treated with CCI-779 or vehicle for 30 days and analyzed by Western blotting for S6 and 4EBP1 phosphorylation.
(§2) 5. In vivo xenograft tumor model. […] Tumor growth was measured every 3 days with calipers, and tumor volume was calculated by the formula V (mm^3)=a×b^2, where a is the longest tumor axis, and b is the shortest tumor axis. […]
In general terms: In western blotting, separated proteins are transferred to a membrane and probed.

In assay [2] the test system is mTOR pathway substrates pS6 Ser235/236 and 4EBP1 Thr70. In words: Time dependent inhibition of phosphorylation of mTOR pathway downstream substrates in xenograft treatment model (FIG. 6A). As to conditions: non-involved muscle and tumor tissue, compared to actin. Here is the method: as §1, §2
Assay [3] concerns RD embryonal rhabdomyosarcoma xenograft. In words: CCI-779 suppression of RD rhabdomyosarcoma xenograft tumor growth. As to conditions: RD orthotopic xenograft, SCID beige mice, 20 mg/kg IP every 3 days for 30 days, calipers. How it is done:
as §1, §2

Assay [4] deals with mTOR downstream targets 4EBP1 and S6. The experiment in a line: Western blotting for S6 and 4EBP1 phosphorylation, Rh30 xenograft tumors or uninvolved muscle. How it is done: as §1, §2
Assay [5] relates to Rh30 alveolar rhabdomyosarcoma xenograft. The experiment in a line: CCI-779 suppression of Rh30 rhabdomyosarcoma xenograft tumor growth. As to conditions: Rh30 orthotopic xenograft, SCID beige mice, 20 mg/kg IP every 3 days for 30 days, calipers. How it is done: as §1, §2

Regarding `CO[C@H]1C[C@@H]2CC[C@@H](C)[C@@](O)(O2)C(=O)C(=O)N2CCCC[C@H]2C(=O)O[C@H]([C@H](C)C[C@@H]2CC[C@@H](OC(=O)C(C)(CO)CO)[C@H](OC)C2)CC(=O)[C@H](C)/C=C(\C)[C@@H](O)[C@@H](OC)C(=O)[C@H](C)C[C@H](C)/C=C/C=C/C=C/1C` [CCI-779, 40-[3-hydroxy(hydroxymethyl)methylpropanoate]-rapamycin], the “Phosphorylation of mTOR downstream targets (4EBP1 and S6)” value in assay [1] (RD embryonal xenograft derived tumors) and in assay [4] (Rh30 alveolar xenograft derived tumors) was “inhibited the expected phosphorylation” throughout. For the same compound, the “Phosphorylation of 4EBP1” value in assay [1] (RD muscle and tumor cells, 20 mg/kg IP every 3 days for 30 days, Western blot) is “suppresses phosphorylation”; in assay [4] (Rh30 muscle and tumor cells, 20 mg/kg IP every 3 days for 30 days, Western blot), “suppresses phosphorylation”. The “Phosphorylation of 4EBP1 Thr70” value in assay [2] is listed as “inhibited phosphorylation”. Further, the “Phosphorylation of pS6 Ser235/236” value in assay [2] is “inhibited phosphorylation”. Also, the “Tumor volume / tumor growth compared to vehicle alone” value in assay [3] is “less and profoundly reduced the growth”; in assay [5] it was “less and profoundly reduced the growth”.
